# System: T1, GABAARs (native, cultured hippocampal neurons)
# T1 construct: gene Gabra1
# Conditions: GABA 100 μM by pressure ejection, -60 mV; allosteric potentiator; error ± 0.3 in Figure 1 legend
smiles,measurement,value
Nc1ncnc2c1ncn2[C@@H]1O[C@H](COP(=O)(O)OP(=O)(O)OP(=O)(O)O)[C@@H](O)[C@H]1O [ATP],EC50,2100 ± 200 µM

# Source: PMC3904413, “Allosteric modulation of GABAA receptors by extracellular ATP” (Molecular Brain, 2014)
